Target: T1, TRPC6:C6 (Homo sapiens, UniProt Q9Y210)
T1 construct: expressed in transfected cells; host or cells: WT HEK 293 (transient)
Assay: [Ca2+]i recordings (Fura-2), TRPC6:C6 in HEK 293 cells
Assay type: cell-based
Description: Based on the findings described above, we wondered whether AC1903—which is typically used as a TRPC5 inhibitor at concentrations of 30–100 μM in cellular assays ([29], [56])—might have limited selectivity for TRPC5 channels and whether its effect on intracellular G418 levels and PTC readthrough might be the consequence of inhibition of other or multiple targets. All well-characterized TRPC channel inhibitors reported to date modulate multiple TRP(C) channels ([34], [35], [36]). […] Because limited data for the selectivity of AC1903 are available in the public domain, we decided to profile AC1903 against a selection of calcium-permeable cation channels by intracellular calcium ([Ca^2+]i) recordings using well-characterized cell lines and TRP channel activators ([46], [57], [58]), and the Ca^2+ indicator Fura-2. In these assays, cells (HEK 293, HEK T-REx, or CHO) overexpressing the relevant ion channel protein and loaded with Fura-2 AM (a cell-permeable precursor of Fura-2) were preincubated with various concentrations of AC1903 or vehicle (DMSO) for 30 min. Then, changes in ratiometric fluorescence (from background) were recorded upon addition of the respective ion channel activator. […]

T1 sequence (Q9Y210 whole entry): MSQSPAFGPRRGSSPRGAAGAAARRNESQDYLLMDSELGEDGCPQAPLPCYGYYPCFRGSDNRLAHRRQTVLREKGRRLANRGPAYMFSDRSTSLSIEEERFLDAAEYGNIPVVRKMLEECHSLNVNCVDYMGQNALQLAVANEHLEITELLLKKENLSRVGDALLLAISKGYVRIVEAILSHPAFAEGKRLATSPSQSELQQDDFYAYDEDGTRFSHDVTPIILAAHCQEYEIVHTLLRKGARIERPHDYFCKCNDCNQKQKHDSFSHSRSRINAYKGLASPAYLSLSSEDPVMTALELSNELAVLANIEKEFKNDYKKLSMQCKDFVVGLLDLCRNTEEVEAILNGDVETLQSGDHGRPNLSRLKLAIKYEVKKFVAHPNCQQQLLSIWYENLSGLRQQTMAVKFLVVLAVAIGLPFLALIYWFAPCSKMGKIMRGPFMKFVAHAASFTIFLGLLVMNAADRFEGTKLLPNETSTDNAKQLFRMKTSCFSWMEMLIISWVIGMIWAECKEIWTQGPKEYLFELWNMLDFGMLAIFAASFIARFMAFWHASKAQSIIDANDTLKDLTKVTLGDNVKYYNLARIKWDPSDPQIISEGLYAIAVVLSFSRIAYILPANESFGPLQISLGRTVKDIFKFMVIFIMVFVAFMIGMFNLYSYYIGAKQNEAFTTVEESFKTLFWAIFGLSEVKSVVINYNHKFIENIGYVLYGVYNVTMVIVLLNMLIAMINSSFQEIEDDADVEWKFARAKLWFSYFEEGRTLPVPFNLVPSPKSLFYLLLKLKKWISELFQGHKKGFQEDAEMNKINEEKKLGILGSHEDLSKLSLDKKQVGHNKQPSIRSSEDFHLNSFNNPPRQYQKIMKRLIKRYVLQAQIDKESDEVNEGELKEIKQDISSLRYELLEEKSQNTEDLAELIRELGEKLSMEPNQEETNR

c1ccc(Cn2c(NCc3ccco3)nc3ccccc32)cc1 [AC1903] was tested, and the IC50 (HEK 293, activator OAG (100 μM)) was 15 µM and the Hill slope (activator OAG) was -1.5.

Source: article PMC8808171, “Nonselective TRPC channel inhibition and suppression of aminoglycoside-induced premature termination codon readthrough by the small molecule AC1903” (The Journal of Biological Chemistry, 2022)
